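1) Cells in 96-well plates. 2) Compound, 48 h, 5 concentrations. 3) Linear interpolation between surrounding doses. 4) Unreached endpoint = highest concentration. GI50: concentration for 50% inhibition of growth. TGI: total growth inhibition.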
Key:
Assay in all cases: NCI anticancer screen, dose series, 48 h
UACC-257 melanoma = tested on: UACC-257 melanoma
HL-60(TB) leukemia = tested on: HL-60(TB) leukemia
SNB-19 CNS = tested on: SNB-19 CNS
SF-268 CNS = tested on: SF-268 CNS
SK-MEL-5 melanoma = tested on: SK-MEL-5 melanoma
MDA-MB-435 = tested on: MDA-MB-435
786-0 renal = tested on: 786-0 renal
SK-MEL-28 melanoma = tested on: SK-MEL-28 melanoma
NCI-H23 lung = tested on: NCI-H23 lung
HOP-92 NSCLC = tested on: HOP-92 NSCLC

SMILES	TGI (UACC-257 melanoma) [µM]	TGI (HL-60(TB) leukemia) [µM]	TGI (SNB-19 CNS) [µM]	TGI (SF-268 CNS) [µM]	TGI (SK-MEL-5 melanoma) [µM]	TGI (MDA-MB-435) [µM]	TGI (786-0 renal) [µM]	TGI (SK-MEL-28 melanoma) [µM]	TGI (NCI-H23 lung) [µM]	TGI (HOP-92 NSCLC) [µM]	GI50 (UACC-257 melanoma) [µM]	GI50 (HL-60(TB) leukemia) [µM]	GI50 (SNB-19 CNS) [µM]	GI50 (SF-268 CNS) [µM]	GI50 (SK-MEL-5 melanoma) [µM]	GI50 (HOP-92 NSCLC) [µM]	GI50 (MDA-MB-435) [µM]	GI50 (SK-MEL-28 melanoma) [µM]	GI50 (NCI-H23 lung) [µM]
C=CCCC1(CC(Sc2ccccc2)P(=O)(c2ccccc2)c2ccccc2)OCCO1 (stereo unspecified)	> 10	> 10	> 10	> 10	> 10	> 10	> 10	> 10	> 10	–	–	–	–	–	–	–	–	–	–
N#Cc1[nH]c(=O)n(-c2ccccc2)c1N	> 10	> 10	> 10	> 10	> 10	> 10	> 10	> 10	> 10	–	–	–	–	–	–	–	–	–	–
Cn1c(O)c(C(=O)NC2CCCCC2)c(=O)n(C)c1=S	28.5	–	71.2	21.6	17	–	22.9	16.8	14.5	8.48	–	–	–	–	–	–	–	–	–
N#CCCC(CCC#N)(CCC#N)NO	> 100	> 100	> 100	> 100	> 100	> 100	> 100	–	> 100	> 100	–	–	–	–	–	–	–	–	–
O=C(Nc1cc(Cl)c(Cl)cc1Cl)C(=O)C1C(=O)NC(=S)NC1=O	> 100	> 100	> 100	> 100	> 100	–	> 100	> 100	> 100	> 100	–	–	–	–	–	–	–	–	–
CCCCC1Cc2ccccc2-c2nc3ccccc3n21 (stereo unspecified)	32.2	0.231	–	33	31.1	37.1	61.9	31	32	30.8	–	–	–	–	–	–	–	–	–
CC(C)=CCC(O)[C@](C)(O)[C@H]1[C@H](O)C[C@@]2(C)[C@@H]3CCc4cc(O)c(OC5OC(CO)C(O)C(O)C5O)cc4C3(C)C(=O)C[C@]12C (stereo partly specified)	> 100	–	> 100	> 100	> 100	> 100	> 100	> 100	> 100	> 100	–	–	–	–	–	–	–	–	–
CC1=CCC(O)C=CC(C)C(O)C(C)C=C(C)C(=O)c2c(O)c(C)cc3c2C(=O)C(N)=C(NC(=O)/C=C\C=C/C=CC(C)C(O)CC1=O)C3=O (stereo unspecified)	> 100	38.6	> 100	> 100	> 100	–	> 100	> 100	> 100	> 100	–	–	–	–	–	–	–	–	–
O=[N+]([O-])c1ccc(S(=O)(=O)n2c3ccc(Br)cc3c3nc4ccccc4nc32)cc1	> 100	–	> 100	> 100	> 100	> 100	> 100	> 100	> 100	> 100	–	–	–	–	–	–	–	–	–
O=Cc1ccccc1COC(=O)c1cc(C(=O)OCc2ccccc2C=O)c(C(=O)OCc2ccccc2C=O)cc1C(=O)OCc1ccccc1C=O	> 100	> 100	> 100	> 100	> 100	–	> 100	> 100	> 100	> 100	–	–	–	–	–	–	–	–	–
COCc1nc2c(OC)c(-c3nc4nc(N5CCN(C)CC5)ccc4[nH]3)cc(OC)c2n1C	36.4	36.2	> 100	> 100	–	48.4	> 100	56	> 100	> 100	–	–	–	–	–	–	–	–	–
Cc1cc(N(CCC#N)CCC#N)ccc1/C=C(\NC(=O)/C=C/c1ccccc1)C(N)=O	> 100	> 100	> 100	> 100	> 100	–	> 100	> 100	> 100	–	–	–	–	–	–	–	–	–	–
CCN(CC)C1CC(O[C@H]2C[C@](O)(C(=O)CO)Cc3c(O)c4c(c(O)c32)C(=O)c2c(OC)cccc2C4=O)OC(C)C1O (stereo partly specified)	0.305	0.533	0.754	0.314	0.124	–	0.541	0.216	0.154	0.268	–	–	–	–	–	–	–	–	–
CN(C(=O)Cc1cccc(N=C=S)c1)[C@H]1CCCC[C@@H]1N1CCCC1	28.9	–	47.6	36.4	20.4	27.8	28.6	32.8	29.5	29	–	–	–	–	–	–	–	–	–
Nc1nc([O-])c2c(n1)[n+](C1OC(CO)C(O)C1O)cn2CCO (stereo unspecified)	> 100	> 100	–	> 100	> 100	–	> 100	> 100	–	> 100	–	–	–	–	–	–	–	–	–
C[Si](C)(C)OC1CC(=O)OC1n1cc(F)c(=O)[nH]c1=O (stereo unspecified)	> 100	> 100	> 100	> 100	> 100	–	> 100	> 100	> 100	–	–	–	–	–	–	–	–	–	–
CC(=O)OC1C(Oc2c(C)cc3c(c2O)[C@@H](C)CC[C@@H]3[C@@H](C)CCC=C(C)C)OCC(O)C1O (stereo partly specified)	35.6	41.7	35.1	33.1	32.1	28.1	32.8	–	34.3	–	–	–	–	–	–	–	–	–	–
NNC(=S)N/N=C(/C(=O)Nc1ccc(Cl)c(Cl)c1)C(C1OC(=O)c2ccccc21)[N+](=O)[O-] (stereo unspecified)	> 100	> 100	–	> 100	> 100	> 100	> 100	> 100	> 100	> 100	–	–	–	–	–	–	–	–	–
O=c1cc(-c2ccc(Oc3ccccc3)cc2)[nH]c2cc3c(cc12)OCO3	> 100	> 100	> 100	> 100	> 100	–	> 100	> 100	> 100	–	–	–	–	–	–	–	–	–	–
O=c1cc(N2CCCC2)[nH]c(=O)n1-c1cccc(Cl)c1	> 100	> 100	> 100	> 100	–	> 100	> 100	–	> 100	> 100	–	–	–	–	–	–	–	–	–
CN=C(SC)N(C)c1nc(=[N+](C)C)ss1	> 100	> 100	> 100	> 100	> 100	–	> 100	> 100	> 100	> 100	–	–	–	–	–	–	–	–	–
COc1ccccc1CNCCCN1C(=O)c2ccc3c4c(ccc(c24)C1=O)C(=O)N(CCCNCCNCCCN)C3=O	7.96	6.34	11.8	11.6	3.02	4.94	–	9.66	5.59	38.8	2.53	2.54	2.18	2.13	1.57	6.7	2.07	3.03	1.72

SMILES	TGI (UACC-257 melanoma) [µM]	TGI (HL-60(TB) leukemia) [µM]	TGI (SNB-19 CNS) [µM]	TGI (SF-268 CNS) [µM]	TGI (SK-MEL-5 melanoma) [µM]	TGI (MDA-MB-435) [µM]	TGI (786-0 renal) [µM]	TGI (SK-MEL-28 melanoma) [µM]	TGI (NCI-H23 lung) [µM]	TGI (HOP-92 NSCLC) [µM]	GI50 (UACC-257 melanoma) [µM]	GI50 (HL-60(TB) leukemia) [µM]	GI50 (SNB-19 CNS) [µM]	GI50 (SF-268 CNS) [µM]	GI50 (SK-MEL-5 melanoma) [µM]	GI50 (HOP-92 NSCLC) [µM]	GI50 (MDA-MB-435) [µM]	GI50 (SK-MEL-28 melanoma) [µM]	GI50 (NCI-H23 lung) [µM]
COc1cc(Br)cc2cc(-c3cn4c(n3)sc3ccccc34)c(=O)oc12	> 75	36.2	> 75	> 75	> 75	> 75	> 75	–	> 75	47.5	–	–	–	–	–	–	–	–	–
CC(=O)O[C@H]1C(=O)[C@@]2(C)C(C(OC(=O)c3ccccc3)[C@]3(O)CC(OC(=O)C(O)C(NC(=O)c4ccc(C(F)(F)F)cc4)c4ccccc4)C(C)=C1C3(C)C)[C@]1(OC(C)=O)CO[C@@H]1C[C@@H]2O (stereo partly specified)	> 37.5	> 37.5	> 37.5	5.3	3.8	–	5.58	17.8	1.06	> 37.5	–	–	–	–	–	–	–	–	–
CCOC(=O)CC(C)C1(C(=O)OCC)CCCCC1=O (stereo unspecified)	> 100	> 100	> 100	> 100	> 100	–	> 100	> 100	–	–	–	–	–	–	–	–	–	–	–
Cn1c([C@H](C#N)c2ncccc2[N+](=O)[O-])nc2ccccc21	> 100	> 100	> 100	> 100	–	> 100	> 100	> 100	> 100	> 100	–	–	–	–	–	–	–	–	–
CN(C)CC1CCCC(CN(C)C)C1OC(=O)c1ccccc1 (stereo unspecified)	> 100	> 100	–	> 100	> 100	–	> 100	> 100	> 100	> 100	–	–	–	–	–	–	–	–	–
Cc1cc(NS(=O)(=O)c2ccc(Nc3c4ccccc4nc4c(C(=O)N5CCN(CCO)CC5)cccc34)cc2)no1	> 100	> 100	> 100	> 100	> 100	–	> 100	> 100	> 100	> 100	–	–	–	–	–	–	–	–	–
c1ccc(CNc2nncc3[nH]cnc23)cc1	> 100	> 100	–	–	> 100	> 100	> 100	> 100	> 100	> 100	–	–	–	–	–	–	–	–	–
CCOC(=O)c1cn2c(n1)sc1cc(Cl)ccc12	> 100	–	83.2	> 100	> 100	> 100	26.4	> 100	> 100	> 100	–	–	–	–	–	–	–	–	–
CCC(=O)Oc1ccc2c(c1)c(=O)c1c(NCCCN(C)C)ccc3nnn2c31	23.4	–	17.3	17.2	10.3	18.7	7.06	23.9	20.3	21.3	–	–	–	–	–	–	–	–	–
C(/C=C/Nc1ccc(Oc2ccccc2)cc1)=Nc1ccc(Oc2ccccc2)cc1	32	49.7	31.3	40.7	–	31.7	32.2	30.3	48.7	51.2	–	–	–	–	–	–	–	–	–
C1=Cc2cc3c(c4nccc(c24)N1)OCO3	50.7	> 100	> 34.7	28.9	–	> 56.1	21.2	> 71	26.3	> 100	–	–	–	–	–	–	–	–	–
O=C1c2ccccc2C(=O)N1CCCCNOCCCN1C(=O)c2ccccc2C1=O	> 100	–	> 100	> 100	> 100	> 100	> 100	> 100	> 100	> 100	–	–	–	–	–	–	–	–	–
CC(C)OC(=O)/C=C/C(=O)O/C=C/[N+](=O)[O-]	> 100	–	> 100	68.7	> 100	> 100	> 100	> 100	> 100	–	–	–	–	–	–	–	–	–	–
O=C(Nc1ccccc1-c1nc2ccccc2[nH]c1=O)c1ccccc1	> 100	–	60.1	64.8	> 100	–	31	> 100	> 100	51.4	–	–	–	–	–	–	–	–	–
CC(=O)Oc1ccc2cc(-c3ccccc3OC(C)=O)c(=O)oc2c1	> 100	24.4	> 100	> 100	–	> 100	> 100	> 100	> 100	–	–	–	–	–	–	–	–	–	–
CC(=O)O[C@H]1C(=O)[C@@]2(C)[C@H]([C@H](OC(=O)c3ccoc3)[C@]3(O)C[C@H](OC(=O)[C@H](O)[C@@H](NC(=O)c4ccccc4)c4ccccc4)C(C)=C1C3(C)C)[C@]1(OC(C)=O)CO[C@@H]1C[C@@H]2O	> 12.5	–	> 12.5	> 12.5	–	0.0236	> 12.5	> 12.5	> 12.5	> 12.5	–	–	–	–	–	–	–	–	–
CC(=O)ONC(C(=O)C(C)(C)C)C(=O)C(C)(C)C	> 100	> 100	> 100	> 100	> 100	–	> 100	> 100	> 100	> 100	–	–	–	–	–	–	–	–	–
CCOC1=NC(O)c2cccn2-c2sccc21 (stereo unspecified)	–	–	> 100	> 100	> 100	> 100	> 100	> 100	> 100	> 100	–	–	–	–	–	–	–	–	–
CC(C)=C[C@H]1CCC2(OCCO2)[C@]1(C)COCc1ccccc1	46.4	–	> 100	> 100	32	> 100	80.1	> 100	> 100	–	–	–	–	–	–	–	–	–	–
CN(C)CCCN=c1c2ccccc2n(O)c2ccccc12	> 100	> 100	–	> 100	> 100	> 100	> 100	> 100	> 100	> 100	–	–	–	–	–	–	–	–	–
Nc1nc(-c2ccccc2)cc(-c2ccc(OCc3ccccc3)cc2O)n1	> 100	–	> 100	> 100	35.5	> 100	> 100	> 100	> 100	> 100	–	–	–	–	–	–	–	–	–
COC1=C(OC)C(=O)C(Cc2c(C)nc3sccn23)=C(C)C1=O	20.7	–	33.3	37.3	17.6	28.6	43.2	23.3	29.5	–	–	–	–	–	–	–	–	–	–

Source: PubChem BioAssay (NCI)
